# Patent publication US5593970A, “Heterocyclic anthracycline analogs” (priority 1994, dated 1997)
# Tested on: DMS 273
# Assay: NCI sulforhodamine B assay
# Format: cell-based, human
compound,measurement,setting,value
"COC(=O)C1CC2=C(C(=O)c3c(cc4ccccc4c3O)C2=O)C(O[C@H]2C[C@H](NC(=O)C(F)(F)F)[C@H](O)[C@H](C)O2)O1 (mixture of isomers) [BCH-242, (1'S,1R,3S) and (1'S, 1S,3R)-Methyl[11-hydroxy-1-2',3',6'-trideoxy-3-trifluroacetamido-L-lyxohexopyranose)-5,12-dioxo-3,4,5,12-tetrahydroanthraceno[2,3-c]pyran-3-yl]formate]",Log10 LC50,"DMS 273, 2880 min",-5.31 log molar
same,CC50,"Homo sapiens, DMS-273, 48 h, read-out: Log10 LC50, DMS 273 (converted)",9.77 µM
